Assay results from patent US11844801B2, “Oral compositions of MK2 pathway inhibitor for treatment of immune conditions” (priority 2020, dated 2023).
“And” between values parts separate entries of the source, which are not always exact repeats. Equal entries are not always repeated. Where two headings read alike, the source gives them in different places.

Assays:
IL-8 = experiment: Ex vivo LPS-stimulated IL-8 in blood of dosed healthy subjects, PK/PD inhibitory Emax model; parameters: species or system human
Protocol: Blood samples of 10 mL were collected for PD analysis. For the SAD cohorts, blood was collected before dosing and 1, 12, and 24 hours after dosing. For the MAD cohorts, on day 1 blood was collected before the morning dose and 4 and 12 hours after the morning dose (prior to the evening dose); on day 7, blood was collected before the morning dose and 4 and 12 hours after the morning dose.
Additional details of the assays for analyzing p-HSP27 and cytokines are included in the Supplementary Information.
Pharmacodynamics. PD data analysis was conducted using Microsoft Excel 2010 (Microsoft, Redmond, WA), Meso Scale Discovery Workbench® analysis software (Rockville, MD), and Phoenix WinNonlin, version 8.2.
Sample Preparation for Cytokine Analysis. For each sample, 180 μL aliquots were transferred into 7 wells of a round bottom 96 well tissue culture polystyrene low evaporation plate. […] No outer wells on the plates were used and all wells surrounding the samples contained 200 μL of phosphate buffered saline.
DMSO was added to all wells in groups ‘A’ and ‘C’ to a final concentration of 0.1% ([…] of a 2% DMSO solution in DMEM containing 10% FBS and 1% penicillin/streptomycin/glutamine). […] Samples were mixed gently for 30 seconds on a plate shaker using pin tools, then placed in an incubator at 37° C./5% CO2 for 1 hour.
Samples in groups ‘A’ and ‘B’ were stimulated with lipopolysaccharide at a final concentration of 100 ng/mL. A stock solution of lipopolysaccharide at 1 mg/mL in DMEM containing 10% FBS and 1% penicillin/streptomycin was diluted to […] in DMEM containing 10% FBS and 1% penicillin/streptomycin, and […] of this working solution was added per well of blood for all samples in groups ‘A’ and ‘B’. […] of DMEM containing 10% FBS only was added per well of blood for all samples in group ‘C’ (unstimulated samples). Samples were mixed gently for 30 seconds on a plate shaker using pin tools, then placed in an incubator at 37° C./5% CO2 for 5 hours.
Following the incubation, the plates were removed from the incubator and sealed with adhesive clear plate seals. The plates were then centrifuged for 10 minutes at 1800×g at room temperature. […] of plasma was removed from each well and transferred to a 96-well polypropylene round bottom master plate, which was then sealed and frozen at −80° C. until all samples from the respective cohort were generated. Once all samples from a given cohort were generated, the samples were analyzed for cytokine (TNF-α, IL-1b, IL-6, and IL-8) production using Meso Scale Discovery Technology.
Analysis of Cytokine Levels Using Meso Scale Discovery Technology. All lipopolysaccharide plasma samples were analyzed for cytokine production with a V-Plex Human Proinflammatory Panel II (4-Plex) Kit from Meso Scale Discovery (Rockville, MD). The master plates containing the plasma samples were thawed on ice, and a daughter plate consisting of a 25-fold dilution of each plasma sample (3 μL of plasma plus 72 μL of Meso Scale Discovery Diluent 2) was generated for each master plate. The diluted plasma samples from the daughter plates were used in the cytokine analysis. The Meso Scale Discovery 4-plex plates were washed 3 times with 150 μL/well of wash buffer (1×KPL phosphate buffered saline with Tween 20 from SeraCare [Milford, MA]). Prepared calibrators and the samples from the daughter plates were added to the washed Meso Scale Discovery 4-plex plates at 50 μL/well. The 4-plex plates were sealed and shaken overnight at 4° C.
After the overnight incubation, the samples were removed by decanting. The 4-plex plates were then washed 3 times with 150 μL/well of wash buffer. […]

[1] = 13-week oral administration non-clinical safety study, mini-pig; type: in vivo; settings: for Cmax / AUC(0-t): 60 mg/kg/day oral; for AUC(0-t): read-out: AUC0-24
Protocol: Study Design. […] Rats were administered 0 (vehicle), 3, 10 and 30 mg/kg/day, and Mini-pigs were administered 0 (vehicle) 10, 30 and 60 mg/kg/day

[2] = Phase 2a RA study: Hand-Wrist MRI RAMRIS and CARLOS; type: in vivo, human; settings: for Carlos Cartilage Loss, mean / RAMRIS Erosion Score, mean / RAMRIS Osteitis Score, mean / RAMRIS Synovitis Score, mean / Carlos Cartilage Loss, change from baseline, mean / RAMRIS Erosion Score, change from baseline, mean / RAMRIS Osteitis Score, change from baseline, mean / RAMRIS Synovitis Score, change from baseline, mean: n = 15
TNF-α = experiment: Differentiated U937 cell LPS stimulated cytokine assay (TNF-α); type: cell-based; settings: Homo sapiens, U-937, U937 cells, 100 ng/mL, 4 hr
Protocol: U937 Cell differentiation and LPS stimulated cytokine assay: The U937 human pre-monocytic cell line (ATCC, CRL-1593.2) was grown in complete media: RPMI 1640 (Gibco, A10491) with penicillin-streptomycin (10 U/mL)-glutamine (2 mM) (Gibco, 10378016) and 10% FBS(Gibco, 26140-079). Cells were differentiated to a monocyte/macrophage phenotype with the addition of PMA (Sigma-Aldrich, P1585) (20 ng/mL, 24 hours), washed with DPBS (Gibco, 14190-136) and incubated in complete media for 24 hours at 37° C., 5% CO2. Following recovery, the cells were scraped, counted, re-plated in complete media in accordance with the experimental design and incubated for an additional 24 hours at 37° C., 5% CO2 prior to stimulation with LPS (Sigma-Aldrich, L2630) as described below. Differentiated U937 cells were pretreated for one hour in the presence of serially diluted compound or vehicle then stimulated with LPS at a final concentration of 100 ng/mL for four hours. Culture media was then collected for determination of cytokine levels using Meso Scale Technology.

[3] = female, minipig, in vivo, study day 90, females
[4] = male, minipig, in vivo, study day 90, males
[5] = most severe hand, baseline, 50 mg BID arm
[6] = most severe hand, week 12, 50 mg BID
[7] = other hand, baseline, 50 mg BID arm

Compound: Cc1cnc(-c2ccnc(C(C)(C)O)n2)cc1-n1c(C)cc(OCc2ncc(F)cc2F)c(Cl)c1=O (single isomer, unassigned) [ATI-450, 3-chloro-4-((3,5-difluoropyridin-2-yl)methoxy)-2′-(2-(2-hydroxypropan-2-yl)pyrimidin-4-yl)-5′,6-dimethyl-2H-[1,4′-bipyridin]-2-one]
- Cmax (Multiple of IC80) (IL-8; 50 mg BID, day 7): 5.6x
- Ctrough (Multiple of IC80) (IL-8; 50 mg BID, day 7): 2.3x
- IC80 (IL-8; Homo sapiens, calculated from IC50, combined SAD and MAD data, read-out: IC80, plasma concentration at 80% of maximal inhibition): 0.0388 µg/mL
- IC50 (IL-8; Homo sapiens, inhibitory Emax model, combined SAD and MAD data, read-out: IC50, plasma concentration at half maximal inhibition): 0.0097 µg/mL
- IC80, plasma concentration at 80% of maximal inhibition (IL-8; calculated from IC50, combined SAD and MAD data): 0.0388 µg/mL
- Imax, maximum percent inhibition (IL-8; inhibitory Emax model): 57% and 57.1%
- mortality ([1]; 13-week oral, up to 60 mg/kg/day): No study drug-related mortality was observed
- Cmax [1, 3]: 2360 ng/mL
- AUC(0-t) [1, 3]: 22600 ng·h/mL
- Cmax [1, 4]: 1670 ng/mL
- AUC(0-t) [1, 4]: 14400 ng·h/mL
- non-adverse findings, haematology ([1]; males at ≥10 mg/kg/day and females at 60 mg/kg/day): Slightly increased neutrophil, lymphocyte and platelet counts
- NOAEL at 13 weeks ([1]; minipig, in vivo, 13-week oral, read-out: no-observed adverse effect level (NOAEL)): 60 mg/kg/day
- joint destruction and synovitis by MRI ([2]; 50 mg BID plus MTX, 12 weeks): prevents the progression of joint destruction and provides significant improvement in synovitis
- Carlos Cartilage Loss, mean [2, 5]: 7.6
- RAMRIS Erosion Score, mean [2, 5]: 13.27
- RAMRIS Osteitis Score, mean [2, 5]: 2.93
- RAMRIS Synovitis Score, mean [2, 5]: 6.1
- Carlos Cartilage Loss, change from baseline, mean [2, 6]: 0.03
- Carlos Cartilage Loss, mean [2, 6]: 7.63
- RAMRIS Erosion Score, change from baseline, mean [2, 6]: 0.63
- RAMRIS Erosion Score, mean [2, 6]: 13.9
- RAMRIS Osteitis Score, change from baseline, mean [2, 6]: 0.9
- RAMRIS Osteitis Score, mean [2, 6]: 3.83
- RAMRIS Synovitis Score, change from baseline, mean [2, 6]: −0.17
- RAMRIS Synovitis Score, mean [2, 6]: 5.93
- Carlos Cartilage Loss, mean [2, 7]: 7.45
- RAMRIS Erosion Score, mean [2, 7]: 13.3
- RAMRIS Osteitis Score, mean [2, 7]: 2.4
- RAMRIS Synovitis Score, mean [2, 7]: 4.07
- Carlos Cartilage Loss, change from baseline, mean ([2]; other hand, week 12, 50 mg BID): 0
- Carlos Cartilage Loss, mean ([2]; other hand, week 12, 50 mg BID): 7.45
- RAMRIS Erosion Score, change from baseline, mean ([2]; other hand, week 12, 50 mg BID): −0.27
- RAMRIS Erosion Score, mean ([2]; other hand, week 12, 50 mg BID): 13.03
- RAMRIS Osteitis Score, change from baseline, mean ([2]; other hand, week 12, 50 mg BID): 1
- RAMRIS Osteitis Score, mean ([2]; other hand, week 12, 50 mg BID): 3.4
- RAMRIS Synovitis Score, change from baseline, mean ([2]; other hand, week 12, 50 mg BID): 0.33
- RAMRIS Synovitis Score, mean ([2]; other hand, week 12, 50 mg BID): 4.4
- IC50 (TNF-α): 1.55 ± 0.35 nM
